# Measured values published in patent US10684294B2, “Diarylether-based fluorogenic probes for detection of hypochlorous acid or hydroxyl radical” (THE UNIVERSITY OF HONG KONG, priority 2015, dated 2020).
# Key:
# [1] = Fluorescence response of probe to increasing hypochlorous acid concentration; conditions: 10 μM probe
# Protocol: Specifically, Compound HKOCl-3 is dissolved in 0.1 M phosphate buffer at pH 7.4 to form a 10 μM solution, with excitation and emission spectra at 490 nm and 527 nm, respectively. The 10 μM solution of compound HKOCl-3 is treated with hypochlorous acid at various concentrations.
# Specifically, compound HJ-3-279 is dissolved in 0.1 M phosphate buffer at pH 7.4 to form a 10 μM solution, with excitation and emission spectra at 490 nm and 527 nm, respectively. The 10 μM solution of Compound HJ-3-279 is treated with hypochlorous acid at various concentrations.
# Specifically, Compound BXY2142 is dissolved in 0.1 M phosphate buffer at pH 7.4 to form a 10 μM solution, with excitation and emission spectra at 530 nm and 557 nm, respectively. The 10 μM solution of Compound BXY2142 is treated with hypochlorous acid at various concentrations.
# Specifically, compound HJ-3-259 is dissolved in 0.1 M phosphate buffer at pH 7.4 to form a 10 μM solution, with excitation and emission spectra at 562 nm and 585 nm, respectively. The 10 μM solution of Compound HJ-3-259 is treated with hypochlorous acid at various concentrations.
# [2] = Reactivity of probe toward different ROS and RNS (HOCl selectivity); conditions: ONOO− 10 μM
# Protocol: (§1) The reactivity of compound HKOCl-3 is compared toward different reactive oxygen species (ROS) and reactive nitrogen species (RNS). Specifically, the 10 μM solution of compound HKOCl-3 is treated with various ROS and RNS. The concentration of highly reactive oxygen species (hydroxyl radical (^●OH), hypochlorous acid (HOCl), and peroxynitrite (ONOO^−)) is 10 μM. The concentration of ^1O2, O2^●−, ^●NO, ROO^●, TBHP and H2O2 is 100 μM.
# as §1, with “HJ-3-279” for “HKOCl-3”
# as §1, with “BXY2142” for “HKOCl-3”, “[…],” for “^1O2, O2^●−,”
# as §1, with “HJ-3-259” for “HKOCl-3”, “with” for “toward”
# [3] = Fluorescence response of probe to hydroxyl radical source (Fenton reagent; TCBQ/H2O2); conditions: 5 μM probe, 0.1 M phosphate buffer pH 7.4, Fenton reagent or TCBQ/H2O2 (H2O2 10:1)
# Protocol: (§2) Specifically, compound HYY166 is dissolved in 0.1 M phosphate buffer at pH 7.4 to form a 5 μM solution, with excitation and emission spectra at 490 nm and 520 nm, respectively. The 5 μM solution of compound HYY166 is treated with hydroxyl radical generated from different hydroxyl radical source: (1) Fenton reagent ([H2O2]:[FeCl2]=10:1); (2) Tetrachloro-1,4-benzoquinone (TCBQ)/H2O2 ([H2O2]:[TCBQ]=10:1) system.
# as §2, with “HKOH-1” for “HYY166”, “504” for “490”, “525” for “520”
# [4] = Reactivity of probe toward different ROS, RNS, FeCl2, FeCl3 and TCBQ (hydroxyl radical selectivity); conditions: 5 μM probe, •OH, HOCl, ONOO−, FeCl2, FeCl3, TCBQ 5 μM, other ROS/RNS 50 μM, especially TCBQ/H2O2 system
# Protocol: (§3) The reactivity of compound HYY166 is tested toward different reactive oxygen species (ROS), reactive nitrogen species (RNS), FeCl2, FeCl3 and TCBQ. Specifically, the 5 μM solution of compound HYY166 is treated with various ROS and RNS. The concentration of highly reactive oxygen species (hydroxyl radical (^●OH), hypochlorous acid (HOCl), and peroxynitrite (ONOO^−)), FeCl2, FeCl3 and TCBQ is 5 μM. The concentration of ^1O2, O2^●−, ^●NO, ROO^●, TBHP and H2O2 is 50 μM.
# as §3, with “HKOH-1” for “HYY166”, “compared” for “tested”
# [5] = 0.1 M phosphate buffer pH 7.4, excitation 490 nm, emission 527 nm
# [6] = 10 μM probe, •OH, 1O2, O2•−, •NO, ROO•, TBHP, H2O2 100 μM, excitation 490 nm, emission 527 nm
# [7] = excitation 504 nm, emission 525 nm
# [8] = excitation 490 nm, emission 520 nm
smiles,measurement,setting,value
CCOC(=O)CCCN1c2cc3c(cc2C(C)CC1(C)C)C1(OC(=O)c2ccccc21)c1ccc(Oc2cc(Cl)c(O)c(Cl)c2)cc1O3 (stereo not shown) [BXY2142],fluorescence intensity on treatment with hypochlorous acid at various concentrations,"[1]; 0.1 M phosphate buffer pH 7.4, excitation 530 nm, emission 557 nm",increases with increasing concentration of hypochlorous acid
O=C1OC2(c3ccc(O)cc3Oc3cc(Oc4cc(Cl)c(O)c(Cl)c4)ccc32)c2ccccc21 (stereo not shown) [HKOCl-3],fluorescence intensity on treatment with hypochlorous acid at various concentrations,[1]; [5],increases with increasing concentration of hypochlorous acid
same,increase in fluorescence intensity with hypochlorous acid versus other ROS and RNS,[2]; [6],much higher increase
same,increase in fluorescence intensity with hypochlorous acid versus other ROS and RNS,"[2]; 10 μM solution of BXY2142, •OH, other ROS/RNS 100 μM, excitation 530 nm, emission 557 nm",much higher increase
O=C1OC2(c3cc(Cl)c(O)cc3Oc3cc(Oc4cc(Cl)c(O)c(Cl)c4)c(Cl)cc32)c2ccccc21 (stereo not shown) [HJ-3-279],fluorescence intensity on treatment with hypochlorous acid at various concentrations,[1]; [5],increases with increasing concentration of hypochlorous acid
same,increase in fluorescence intensity with hypochlorous acid versus other ROS and RNS,[2]; [6],much higher increase
O=C1OC2(c3cc(Cl)c(O)cc3Oc3cc(Oc4cc(I)c(O)c(I)c4)c(Cl)cc32)c2ccccc21 (stereo not shown) [HKOH-1],fluorescence intensity on treatment with hydroxyl radical source,[3]; [7],increases with increasing concentration of hydroxyl radical source
same,increase in fluorescence intensity with hydroxyl radical versus other ROS and RNS,[4]; [7],much higher increase
O=C1OC2(c3ccc(O)cc3Oc3cc(Oc4cc(I)c(O)c(I)c4)ccc32)c2ccccc21 (stereo not shown) [HYY166],fluorescence intensity on treatment with hydroxyl radical source,[3]; [8],increases with increasing concentration of hydroxyl radical source
same,increase in fluorescence intensity with hydroxyl radical versus other ROS and RNS,[4]; [8],much higher increase
